How the values were obtained:
KPC-2 = target: T1, KPC-2 (Klebsiella pneumoniae, UniProt Q9F663); test: β-lactamase enzyme inhibition assay, KPC-2 (imipenem substrate); type: biochemical; conditions: Class A; imipenem substrate, 300 nm; read-out: KPC-2
T1 construct: made in house; host or cells: E. coli BL21(DE3)
Procedure, shortened: (§1)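 Native untagged enzymes expressed in E. coli BL21(DE3), purified by cation exchange and gel filtration. Inhibitor preincubated with enzyme 15 min at 37 °C; hydrolysis followed by absorbance: imipenem at 300 nm for KPC-2, cefotaxime at 260 nm for SHV-5. IC50 as concentration halving initial hydrolysis rate versus inhibitor-free wells.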

[1] = test system: K. pneumoniae producing the Class D carbapenemase OXA-48; test: Broth microdilution MIC assay with meropenem, K. pneumoniae OXA-48; type: cell-based; conditions: Fixed Mero (meropenem) 4 μg/mL; K. p. 11978 OXA-48
Procedure, shortened: (§2)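 Test compound was titrated 2-fold from 16 to 0.125 μg/mL in cation-adjusted Mueller Hinton broth against a fixed 4 μg/ml β-lactam overlay. Plates were inoculated per CLSI broth microdilution, incubated 16-20 hours at 37° C, and the MIC of the test compound was read visually.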

[2] = test system: E. cloacae expressing the Class C P99; test: Broth microdilution MIC assay with ceftazidime, E. cloacae P99; type: cell-based; conditions: Fixed CAZ (ceftazidime) 4 μg/mL; E. cl. 144200 p99 AmpC
Procedure, shortened: as §2

VIM-2 = target: T2, VIM-2 (Escherichia coli, UniProt Q5U7L7); test: β-lactamase enzyme inhibition assay, VIM-2 (nitrocefin substrate); type: biochemical; conditions: Class B; nitrocefin substrate, 486 nm; read-out: VIM-2
T2 construct: made in house; host or cells: E. coli BL21(DE3)
Procedure, shortened: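 Purified VIM-2 (Q sepharose anion exchange, Hepes pH 7.5, >90% pure) was preincubated with inhibitor at 37 °C for 15 min, then nitrocefin added at 100 μM final. Absorbance at 486 nm was followed for 10 min; IC50 was taken from maximum hydrolysis rates relative to inhibitor-free controls.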

AmpC = target: T3, AmpC (Enterobacter cloacae, UniProt P05364); test: β-lactamase enzyme inhibition assay, p99 AmpC (nitrocefin substrate); type: biochemical
T3 construct: made in house; host or cells: E. coli BL21(DE3)
Procedure, shortened: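 Native untagged enzymes expressed in E. coli BL21(DE3), purified by cation exchange and gel filtration. Inhibitor preincubated with enzyme 15 min at 37 °C; hydrolysis followed by absorbance. IC50 as concentration halving initial hydrolysis rate versus inhibitor-free wells.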

[3] = test system: K. pneumoniae expressing the Class A carbapenemase KPC-2; test: Broth microdilution MIC assay with meropenem, K. pneumoniae KPC-2; type: cell-based; conditions: Fixed Mero (meropenem) 4 μg/mL; K. p. 156319 KPC-3
Procedure, shortened: as §2

[4] = test system: E. coli expressing the Class A Extended Spectrum Beta-Lactamase (ESBL) CTX-M-15; test: Broth microdilution MIC assay with ceftazidime, E. coli CTX-M-15; type: cell-based; conditions: Fixed CAZ (ceftazidime) 4 μg/mL; E. coli ESBL4 CTX-M-15
Procedure, shortened: as §2

[5] = test system: P. aeruginosa expressing the Class B carbapenemase VIM-2; test: Broth microdilution MIC assay with meropenem, P. aeruginosa VIM-2; type: cell-based; conditions: Fixed Mero (meropenem) 4 μg/mL; P. aerug. 2775 VIM-2
Procedure, shortened: as §2

SHV-5 = target: T4, SHV-5 (Klebsiella pneumoniae, UniProt P0A3M1); test: β-lactamase enzyme inhibition assay, SHV-5 (cefotaxime substrate); type: biochemical
T4 construct: made in house; host or cells: E. coli BL21(DE3)
Procedure, shortened: as §1

OXA-48 = OXA-48 (UniProt Q6XEC0); test: β-lactamase enzyme inhibition assay, Class D oxacillinase; type: biochemical; conditions: read-out: OXA-48
[6] = test system: K. pneumoniae expressing the class A carbapenemase KPC-2 and the class B carbapenemase VIM-4; test: Broth microdilution MIC assay with meropenem, K. pneumoniae KPC-2 and VIM-4; type: cell-based; conditions: Fixed Mero (meropenem) 4 μg/mL; K. p. A-1797 KPC-2 VIM-4
Procedure, shortened: as §2

T4 sequence (P0A3M1 22-286): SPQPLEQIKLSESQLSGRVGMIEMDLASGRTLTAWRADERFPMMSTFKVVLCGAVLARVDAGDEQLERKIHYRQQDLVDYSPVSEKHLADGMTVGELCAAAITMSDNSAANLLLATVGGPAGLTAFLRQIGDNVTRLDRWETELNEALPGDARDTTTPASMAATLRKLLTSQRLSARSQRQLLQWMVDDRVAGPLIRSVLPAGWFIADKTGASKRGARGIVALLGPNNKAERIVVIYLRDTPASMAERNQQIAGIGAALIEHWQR
T3 sequence (P05364 21-381): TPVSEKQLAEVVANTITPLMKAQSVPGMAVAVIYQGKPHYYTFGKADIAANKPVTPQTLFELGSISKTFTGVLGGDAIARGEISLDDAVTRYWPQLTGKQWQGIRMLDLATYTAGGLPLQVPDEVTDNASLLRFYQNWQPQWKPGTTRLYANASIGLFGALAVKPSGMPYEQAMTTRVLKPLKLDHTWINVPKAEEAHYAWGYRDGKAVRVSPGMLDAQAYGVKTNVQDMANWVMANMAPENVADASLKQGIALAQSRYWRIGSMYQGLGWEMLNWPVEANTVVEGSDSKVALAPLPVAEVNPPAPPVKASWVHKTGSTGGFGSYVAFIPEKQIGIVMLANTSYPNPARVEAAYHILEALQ
T1 sequence (Q9F663 25-293, looked up): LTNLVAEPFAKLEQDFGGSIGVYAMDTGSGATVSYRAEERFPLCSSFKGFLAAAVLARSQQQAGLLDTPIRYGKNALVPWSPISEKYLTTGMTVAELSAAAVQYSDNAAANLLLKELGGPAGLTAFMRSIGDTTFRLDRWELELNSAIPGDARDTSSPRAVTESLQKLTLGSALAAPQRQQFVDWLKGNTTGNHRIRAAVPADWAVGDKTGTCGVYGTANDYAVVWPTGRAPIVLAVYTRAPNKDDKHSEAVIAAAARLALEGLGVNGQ

SMILES	IC50 (KPC-2) [nM]	MIC (μg/mL) of Exemplary Compounds in presence of fixed β-lactams: K. p. 11978 OXA-48 [1]	MIC (μg/mL) of Exemplary Compounds in presence of fixed β-lactams: E. cl. 144200 p99 AmpC [2]	IC50 (VIM-2) [nM]	IC50 (AmpC) [nM]	MIC (μg/mL) of Exemplary Compounds in presence of fixed β-lactams: K. p. 156319 KPC-3 [3]	MIC (μg/mL) of Exemplary Compounds in presence of fixed β-lactams: E. coli ESBL4 CTX-M-15 [4]	MIC (μg/mL) of Exemplary Compounds in presence of fixed β-lactams: P. aerug. 2775 VIM-2 [5]	IC50 (SHV-5) [nM]	IC50 (OXA-48) [nM]	MIC (μg/mL) of Exemplary Compounds in presence of fixed β-lactams: K. p. A-1797 KPC-2 VIM-4 [6]
NCc1cnnn1CC(=O)N[C@H]1Cc2cccc(C(=O)O)c2OB1O [Example 13, (R)-3-(2-(5-(aminomethyl)-1H-1,2,3-triazol-1-yl)acetamido)-2-hydroxy-3,4-dihydro-2H-benzo[e][1,2]oxaborinine-8-carboxylic acid]	< 100	B (B represents an MIC between 1 and 16 μg/mL inclusive)	C (C represents an MIC of <1 μg/mL)	100 to 1000	< 100	B (B represents an MIC between 1 and 16 μg/mL inclusive)	B (B represents an MIC between 1 and 16 μg/mL inclusive)	B (B represents an MIC between 1 and 16 μg/mL inclusive)	100 to 1000	100 to 1000	B (B represents an MIC between 1 and 16 μg/mL inclusive)
CNCc1nnn(CC(=O)N[C@H]2Cc3cccc(C(=O)O)c3OB2O)c1CO [Example 14, (R)-2-hydroxy-3-(2-(5-(hydroxymethyl)-4-((methylamino)methyl)-1H-1,2,3-triazol-1-yl)acetamido)-3,4-dihydro-2H-benzo[e][1,2]oxaborinine-8-carboxylic acid]	100 to 1000	B (B represents an MIC between 1 and 16 μg/mL inclusive)	C (C represents an MIC of <1 μg/mL)	100 to 1000	< 100	B (B represents an MIC between 1 and 16 μg/mL inclusive)	B (B represents an MIC between 1 and 16 μg/mL inclusive)	B (B represents an MIC between 1 and 16 μg/mL inclusive)	100 to 1000	100 to 1000	B (B represents an MIC between 1 and 16 μg/mL inclusive)
CNCc1c(CO)nnn1CC(=O)N[C@H]1Cc2cccc(C(=O)O)c2OB1O [Example 15, (R)-2-hydroxy-3-(2-(4-(hydroxymethyl)-5-((methylamino)methyl)-1H-1,2,3-triazol-1-yl)acetamido)-3,4-dihydro-2H-benzo[e][1,2]oxaborinine-8-carboxylic acid]	100 to 1000	B (B represents an MIC between 1 and 16 μg/mL inclusive)	C (C represents an MIC of <1 μg/mL)	< 100	< 100	B (B represents an MIC between 1 and 16 μg/mL inclusive)	C (C represents an MIC of <1 μg/mL)	C (C represents an MIC of <1 μg/mL)	100 to 1000	100 to 1000	B (B represents an MIC between 1 and 16 μg/mL inclusive)
O=C(Cn1nnc(C(=O)O)c1C(=O)O)N[C@H]1Cc2cccc(C(=O)O)c2OB1O [Example 16, (R)-1-(2-((8-carboxy-2-hydroxy-3,4-dihydro-2H-benzo[e][1,2]oxaborinin-3-yl)amino)-2-oxoethyl)-1H-1,2,3-triazole-4,5-dicarboxylic acid]	< 100	B (B represents an MIC between 1 and 16 μg/mL inclusive)	C (C represents an MIC of <1 μg/mL)	1000 to 10000	< 100	B (B represents an MIC between 1 and 16 μg/mL inclusive)	B (B represents an MIC between 1 and 16 μg/mL inclusive)	B (B represents an MIC between 1 and 16 μg/mL inclusive)	< 100	< 100	B (B represents an MIC between 1 and 16 μg/mL inclusive)
NCc1nc(CC(=O)N[C@H]2Cc3cccc(C(=O)O)c3OB2O)cs1 [Example 19, (R)-3-(2-(2-(aminomethyl)thiazol-4-yl)acetamido)-2-hydroxy-3,4-dihydro-2H-benzo[e][1,2]oxaborinine-8-carboxylic acid]	< 100	B (B represents an MIC between 1 and 16 μg/mL inclusive)	C (C represents an MIC of <1 μg/mL)	100 to 1000	< 100	B (B represents an MIC between 1 and 16 μg/mL inclusive)	C (C represents an MIC of <1 μg/mL)	C (C represents an MIC of <1 μg/mL)	< 100	< 100	B (B represents an MIC between 1 and 16 μg/mL inclusive)
Nc1nnc(CC(=O)N[C@H]2Cc3cccc(C(=O)O)c3OB2O)[nH]1 [Example 20, (R)-3-(2-(5-amino-4H-1,2,4-triazol-3-yl)acetamido)-2-hydroxy-3,4-dihydro-2H-benzo[e][1,2]oxaborinine-8-carboxylic acid]	< 100	B (B represents an MIC between 1 and 16 μg/mL inclusive)	C (C represents an MIC of <1 μg/mL)	100 to 1000	100 to 1000	B (B represents an MIC between 1 and 16 μg/mL inclusive)	C (C represents an MIC of <1 μg/mL)	B (B represents an MIC between 1 and 16 μg/mL inclusive)	< 100	100 to 1000	B (B represents an MIC between 1 and 16 μg/mL inclusive)
O=C(Cn1cc(CNCCO)nn1)N[C@H]1Cc2cccc(C(=O)O)c2OB1O [Example 21, (R)-2-hydroxy-3-(2-(4-(((2-hydroxyethyl)amino)methyl)-1H-1,2,3-triazol-1-yl)acetamido)-3,4-dihydro-2H-benzo[e][1,2]oxaborinine-8-carboxylic acid]	< 100	B (B represents an MIC between 1 and 16 μg/mL inclusive)	C (C represents an MIC of <1 μg/mL)	< 100	< 100	B (B represents an MIC between 1 and 16 μg/mL inclusive)	C (C represents an MIC of <1 μg/mL)	B (B represents an MIC between 1 and 16 μg/mL inclusive)	< 100	100 to 1000	B (B represents an MIC between 1 and 16 μg/mL inclusive)
N=CNCc1cn(CC(=O)N[C@H]2Cc3cccc(C(=O)O)c3OB2O)nn1 [Example 22, (R)-3-(2-(4-(formimidamidomethyl)-1H-1,2,3-triazol-1-yl)acetamido)-2-hydroxy-3,4-dihydro-2H-benzo[e][1,2]oxaborinine-8-carboxylic acid]	100 to 1000	B (B represents an MIC between 1 and 16 μg/mL inclusive)	C (C represents an MIC of <1 μg/mL)	100 to 1000	< 100	C (C represents an MIC of <1 μg/mL)	C (C represents an MIC of <1 μg/mL)	C (C represents an MIC of <1 μg/mL)	100 to 1000	1000 to 10000	B (B represents an MIC between 1 and 16 μg/mL inclusive)

— patent US11046716B2, “Beta-lactamase inhibitors” (priority 2015, dated 2021)
